Test results: US20050107257A1, “Derivatives of (1-benzyl-piperidine-4-yl)-diphenyl-methanol and their use as pesticide” (priority 2002, published 2005)

Assays:
Plutella xylostella = assay: Action against Plutella xylostella caterpillars (sprayed cabbage plants); assay type: in vivo; settings: 72 h, 400 ppm spray mixture, third-stage caterpillars, evaluation 3 days later, read-out: % activity (percentage reduction in population and percentage reduction in feeding damage)
Method: (§1) Young cabbage plants are sprayed with an aqueous emulsion spray mixture comprising 400 ppm of test compound. After the spray-coating has dried, the cabbage plants are populated with 10 caterpillars of Plutella xylostella in the third stage and placed in a plastics container. Evaluation is made 3 days later. The percentage reduction in population and the percentage reduction in feeding damage (% activity) are determined by comparing the number of dead caterpillars and the feeding damage on the treated plants with that on the untreated plants.

Heliothis virescens = assay: Action against Heliothis virescens caterpillars (sprayed soybean plants); assay type: in vivo; settings: 144 h, 400 ppm spray mixture, first-stage caterpillars, evaluation 6 days later, read-out: % activity (percentage reduction in population and percentage reduction in feeding damage)
Method: Young soybean plants are sprayed with an aqueous emulsion spray mixture comprising 400 ppm of test compound. After the spray-coating has dried, the soybean plants are populated with 10 caterpillars of Heliothis virescens in the first stage and placed in a plastics container. Evaluation is made 6 days later. The percentage reduction in population and the percentage reduction in feeding damage (% activity) are determined by comparing the number of dead caterpillars and the feeding damage on the treated plants with that on untreated plants.

Spodoptera littoralis = assay: Action against Spodoptera littoralis caterpillars (sprayed soybean plants); assay type: in vivo; settings: 72 h, 400 ppm spray mixture, third-stage caterpillars, evaluation 3 days later, read-out: % activity (percentage reduction in population and percentage reduction in feeding damage)
Method: as §1, with “Young soybean plants are” for “Young cabbage plants are”, “dried, the soybean plants are” for “dried, the cabbage plants are”, “caterpillars of Spodoptera littoralis in the” for “caterpillars of Plutella xylostella in the”, “that on untreated plants.” for “that on the untreated plants.”

Diabrotica balteata = assay: Action against Diabrotica balteata larvae (sprayed maize seedlings); assay type: in vivo; settings: 144 h, 400 ppm spray mixture, second-stage larvae, evaluation 6 days later, read-out: % activity (percentage reduction in population)
Method: Maize seedlings are sprayed with an aqueous emulsion spray mixture comprising 400 ppm of the test compound. After the spray-coating has dried, the maize seedlings are populated with 10 Diabrotica balteata larvae in the second stage and placed in a plastics container. Evaluation is made 6 days later. The percentage reduction in population (% activity) is determined by comparing the number of dead larvae on the treated plants with that on untreated plants.

| SMILES | melting point [°C] | inhibition at 400 ppm (Plutella xylostella) [%] | inhibition at 400 ppm (Heliothis virescens) [%] | inhibition at 400 ppm (Spodoptera littoralis) [%] | inhibition at 400 ppm (Diabrotica balteata) [%] |
| --- | --- | --- | --- | --- | --- |
| CCC1=C(C(O)(c2ccc(C(F)(F)F)cc2)c2ccc(C(F)(F)F)cc2)CC[N+]([O-])(Cc2ccc(NC(=O)OC(C)C)cc2)C1 (centres unmarked) [Compound 1.11] | 207 to 211 |  |  |  |  |
| CC(C)OC(=O)Nc1ccc(C[N+]2([O-])CC[C@@H](C(O)(c3ccc(C(F)(F)F)cc3)c3ccc(C(F)(F)F)cc3)[C@H](C)C2)cc1 (some centres unmarked) [Compound 2.5] | 188 to 190 | > 80 | > 80 | > 80 | > 80 |
| CC(C)OC(=O)Nc1ccc(CN2CC[C@@H](C(O)(c3ccc(C(F)(F)F)cc3)c3ccc(C(F)(F)F)cc3)[C@H](C)C2)cc1 [Compound 2.6] | 66 to 67 | > 80 | > 80 | > 80 | > 80 |
